Data published in patent publication US20260317272A1, “USE OF STROBILURIN TYPE COMPOUNDS FOR COMBATING PHYTOPATHOGENIC FUNGI CONTAINING AN AMINO ACID SUBSTITION F129L IN THE MITOCHONDRIAL CYTOCHROME B PROTEIN CONFERRING RESISTANCE TO QO INHIBITORS XVI” (priority 2023, published 2026).

Columns and labels:
Phakopsora pachyrhizi [1] = experiment: Use Example 4: protective control of soybean rust on soybeans (PHAKPA P6); format: in vivo; conditions: 16 ppm, six days before inoculation, F129L strain, up to 14 days, untreated 90
Experimental: (§1) The compound was dissolved in a mixture of acetone and/or dimethylsulfoxide and the wetting agent/emulsifier Wettol, which is based on ethoxylated alkylphenoles, in a ratio (volume) solvent-emulsifier of 99 to 1 to give a total volume of 5 ml. Subsequently, water was added to total volume of 100 ml. This stock solution was then diluted with the described solvent-emulsifier-water mixture to the final concentration given in the tables below.
Use Example 4. Protective Control of Soybean Rust on Soybeans Caused by Phakopsora pachyrhizi (PHAKPA P6)
Leaves of potted soybean seedlings were sprayed to run-off with the previously described spray solution, containing the concentration of active ingredient as described below. The plants were allowed to air-dry. The trial plants were cultivated for six days in a greenhouse chamber at 23-27° C. and a relative humidity between 60 and 80%. Then the plants were inoculated with spores of Phakopsora pachyrhizi. The strain used contains the amino acid substitution F129L in the mitochondrial cytochrome b protein conferring resistance to Qo inhibitors. To ensure the success the artificial inoculation, the plants were transferred to a humid chamber with a relative humidity of about 95% and 23 to 27° C. for 24 hr. The trial plants were cultivated for up to 14 days in a greenhouse chamber at 23 to 27° C. and a relative humidity between 60 and 80%. The extent of fungal attack on the leaves was visually assessed as % diseased leaf area, the disease level of untreated controls was usually higher than 85%.

Phakopsora pachyrhizi [2] = experiment: Use Example 5: protective control of soybean rust on soybeans (PHAKPA P9); format: in vivo; conditions: 16 ppm, 9 days before inoculation, F129L strain, up to 14 days, untreated 85
Experimental: as §1
Use Example 5. Protective Control of Soybean Rust on Soybeans Caused by Phakopsora pachyrhizi (PHAKPA P9)
Leaves of potted soybean seedlings were sprayed to run-off with the previously described spray solution, containing the concentration of active ingredient or their mixture as described below. The plants were allowed to air-dry. The trial plants were cultivated for 9 days in a greenhouse chamber at 23-27° C. and a relative humidity between 60 and 80%. Then the plants were inoculated with spores of Phakopsora pachyrhizi. The strain used contains the amino acid substitution F129L in the mitochondrial cytochrome b protein conferring resistance to Qo inhibitors. To ensure the success of the artificial inoculation, the plants were transferred to a humid chamber with a relative humidity of about 95% and 20 to 24° C. for 24 h. The trial plants were cultivated for up to 14 days in a greenhouse chamber at 23-27° C. and a relative humidity between 60 and 80%. The extent of fungal attack on the leaves was visually assessed as % diseased leaf area.

Puccinia striiformis = experiment: Use Example 10: preventative control of wheat stripe rust on wheat (PUCCST P7); format: in vivo; conditions: 16 ppm, untreated 90%
Experimental: as §1
Use Example 10. Preventative Control of Wheat Stripe Rust on Wheat Caused by Puccinia striiformis (PUCCST P7)
The first two developed leaves of potted wheat seedling were sprayed to run-off with previously described spray solution, containing the concentration of active ingredient or their mixture as described below. Seven days later the plants were inoculated with spores of Puccinia striiformis. To ensure the success of the artificial inoculation, the plants were transferred to a chamber without light and a temperature of 5° C. for 24 h. Then the trial plants were cultivated for up to 14 days in a greenhouse chamber at 16° C. and a relative humidity of minimum 75%. The extent of fungal attack on the leaves was visually assessed as % diseased leaf area.

Pyrenophora teres = experiment: Use Example 11: control of net blotch on barley (PYRNTE P1); format: in vivo, Pyrenophora (syn. Drechslera) teres; conditions: F129L strain, inoculated the next day, 16 ppm, untreated 75%
Experimental: as §1
Use Example 11. Control of Net Blotch on Barley Caused by Pyrenophora teres (PYRNTE P1)
The first fully developed leaves of potted barley plants were sprayed to run-off previously described spray solution, containing the concentration of active ingredient or their mixture mentioned in the table below. The next day the treated plants were inoculated with an aqueous spore suspension Pyrenophora (syn. Drechslera) teres. The strain used contains the amino acid substitution F129L in the mitochondrial cytochrome b protein conferring resistance to Qo inhibitors. Then the trial plants were cultivated for up to 19 days at 20-24° C. and a relative humidity close to 70%, the extent of fungal attack on the leaves was visually assessed as % diseased leaf area.

Phakopsora pachyrhizi [3] = experiment: Use Example 14: activity against Asian soybean rust under semi field conditions; format: in vivo; conditions: 100 g a.i./ha; for B14 Efficacy, % / Efficacy, %: Abbot's formula; for B14 Efficacy, % / B14 infection rate, %: 14 days after second application, semi field, Brazil; for B14 infection rate, %: sprayed twice, 14 day interval; for Efficacy, %: B14; for infection rate, %: B14 (14 days after second application)
Experimental: Use Example 14. Activity Against Asian Soybean Rust (Phakopsora pachyrhizi) Under Semi Field Conditions
Soybeans were grown in an area covered with an insect proof net under natural temperature and light regime in Brazil. Seeds were sown in a tray, allowed to germinate and grow for 14-23 days, and afterwards transplanted to containers. Subsequently, the plants were grown for another 27-35 days before spray application.
The soybean plants were sprayed twice at a spray interval of 14 days. The spray solutions were prepared by mixing experimental formulations (100 g/l SC), in water, adding the adjuvant Mees™ (BASF, soybean oil methyl ester 824.3 g/L, EC) at 0.5 I/ha. The plants were sprayed in a mobile spray cabinet with a horizontal boom. The spray solutions were applied with 500 L/ha spray volume with a flat fan nozzle.
The plants were inoculated with natural population of Phakopsora pachyrhizi spore suspension one day after each spray application. Plants were incubated in a mobile chamber with a misting system at saturated humidity following each inoculation.
Soybean rust infestation was assessed as percent infected leaf area at 14 days after second application (B14). These percent values were converted in efficacies. The efficacy (E) was calculated as follows using Abbot's formula: […]

Puccinia triticina = experiment: Use Example 15: activity against Puccinia triticina (PUCCRT, brown rust on wheat) in field; format: in vivo; conditions: for Efficacy, %: Abbot's formula, B23; for infection rate, %: B23 (23 days after second treatment), flag leaf
Experimental: Use Example 15. Activity Against Puccinia triticina (PUCCRT, Brown Rust on Wheat) in Field
Trials were conducted under field conditions in Spain. Spring wheat was planted and grown with adequate supply of water and nutrients. Two applications (A and B) of the test compounds were made at onset of disease (application A) and at second application at an interval of 22 days (application B). The spray solutions were prepared by mixing experimental formulations of the test compounds (50 g/L EC) in water, adding 124 g/ha Plurafac LF301 and Plurafac LF1312 (BASF, low-foaming non-ionic surfactants consisting of alkoxylated, predominantly unbranched fatty alcohols containing higher alkene oxides alongside ethylene oxide), respectively. The spray solutions were applied with 300 I/ha spray volume with a flat fan nozzle.
The infestation levels for brown rust (Puccinia triticina) were evaluated 23 days after the second fungicide treatment (B23), a mean value across the flag leaf level was calculated. In addition, efficacy was calculated using Abbot's formula as in use example 14.

[4] = Table 3, untreated infection 56
[5] = Table 8, 75 g a.i./ha, untreated infection 75%
[6] = Table 8, 150 g a.i./ha, untreated infection 75%
[7] = Table 8, 75 g a.i./ha, untreated 75%
[8] = Table 8, 150 g a.i./ha, untreated 75%
[9] = Table 5, untreated infection 71%
[10] = Table 10, 75 g a.i./ha, untreated infection 50%
[11] = Table 10, 150 g a.i./ha, untreated infection 50%
[12] = Table 10, 75 g a.i./ha, untreated 50%
[13] = Table 10, 150 g a.i./ha, untreated 50%

SMILES | Diseased leaf area (%) (Phakopsora pachyrhizi [1]) | Diseased leaf area (%) (Phakopsora pachyrhizi [2]) | Diseased leaf area (%) (Puccinia striiformis) | Diseased leaf area (%) (Pyrenophora teres) | Efficacy, % (Puccinia triticina; [5]) [%] | Efficacy, % (Puccinia triticina; [6]) [%] | infection rate, % (Puccinia triticina; [7]) [%] | infection rate, % (Puccinia triticina; [8]) [%] | also measured
CNC(=O)/C(=N/OC)c1cccc(C)c1CO/N=C(\COC)c1c(F)cc(F)cc1F [Compound 1, (2E)-2-methoxyimino-2-[2-[[(Z)-[2-methoxy-1-(2,4,6-trifluorophenyl)ethylidene]amino]oxymethyl]-3-methyl-phenyl]-N-methyl-acetamide] | 0 | 0 | 13 | 5 | 60 | 89 | 30 | 8 | B14 Efficacy, % (Phakopsora pachyrhizi [3]; [4]): 57%; B14 infection rate, % (Phakopsora pachyrhizi [3]; Table 3, untreated 56): 24%
CO/C=C(/C(=O)OC)c1cccc(C)c1CO/N=C(\COC)c1c(F)cc(F)cc1F [Compound 4, methyl (E)-3-methoxy-2-[2-[[(Z)-[2-methoxy-1-(2,4,6-trifluorophenyl)ethylidene]amino]oxymethyl]-3-methyl-phenyl]prop-2-enoate] | 0 | 0 | 0 | 5 | 95 | 97 | 4 | 2 | Efficacy, % (Phakopsora pachyrhizi [3]; Table 6, untreated infection 62%): 66%; infection rate, % (Phakopsora pachyrhizi [3]; Table 6, untreated 62%): 21%
COC/C(=N\OCc1c(C)cccc1/C(=N\OC)C(=O)OC)c1c(F)cc(F)cc1F [Compound 2, methyl (2E)-2-methoxyimino-2-[2-[[(Z)-[2-methoxy-1-(2,4,6-trifluorophenyl)ethylidene]amino]oxymethyl]-3-methyl-phenyl]acetate] | 7 | 2 | 11 | 6 | 23 | 40 | 58 | 45 | B14 Efficacy, % (Phakopsora pachyrhizi [3]; Table 4, untreated infection 52): 54%; B14 infection rate, % (Phakopsora pachyrhizi [3]; Table 4, untreated 52): 24%
CO/C=C(/C(=O)OC)c1cccc(C)c1CO/N=C(\COC)c1ccc(Cl)cc1Cl [Compound 6, methyl (E)-2-[2-[[(Z)-[1-(2,4-dichlorophenyl)-2-methoxy-ethylidene]amino]oxymethyl]-3-methyl-phenyl]-3-methoxy-prop-2-enoate] | 9 | 9 | 0 | 7 | – | – | – | – | Efficacy, % (Phakopsora pachyrhizi [3]; [9]): 56%; infection rate, % (Phakopsora pachyrhizi [3]; Table 5, untreated 71%): 31%; Efficacy, % (Puccinia triticina; [10]): 40%; Efficacy, % (Puccinia triticina; [11]): 50%; infection rate, % (Puccinia triticina; [12]): 30%; infection rate, % (Puccinia triticina; [13]): 25%
CNC(=O)/C(=N/OC)c1cccc(C)c1CO/N=C(\COC)c1ccc(F)c(F)c1 [Compound 5, (2E)-2-[2-[[(Z)-[1-(3,4-difluorophenyl)-2-methoxy-ethylidene]amino]oxymethyl]-3-methylphenyl]-2-methoxyimino-N-methyl-acetamide] | 0 | 1 | 7 | 3 | – | – | – | – | B14 Efficacy, % (Phakopsora pachyrhizi [3]; [4]): 57%; B14 infection rate, % (Phakopsora pachyrhizi [3]; Table 3, untreated 56): 24%; Efficacy, % (Puccinia triticina; [10]): 84%; Efficacy, % (Puccinia triticina; [11]): 92%; infection rate, % (Puccinia triticina; [12]): 8%; infection rate, % (Puccinia triticina; [13]): 4%
CNC(=O)/C(=N/OC)c1cccc(C)c1CO/N=C(\COC)c1c(F)cc(OC)cc1F [Compound 7, (2E)-2-[2-[[(Z)-[1-(2,6-difluoro-4-methoxy-phenyl)-2-methoxy-ethylidene]amino]oxymethyl]-3-methyl-phenyl]-2-methoxyimino-N-methyl-acetamide] | 1 | 1 | 0 | – | 92 | 97 | 6 | 2 | Efficacy, % (Phakopsora pachyrhizi [3]; Table 7, untreated infection 63%): 40%; infection rate, % (Phakopsora pachyrhizi [3]; Table 7, untreated 63%): 38%
CO/C=C(/C(=O)OC)c1cccc(C)c1CO/N=C(\COC)c1ccc(F)cc1Cl [Compound 3] | 4 | 0 | 0 | 3 | – | – | – | – | Efficacy, % (Phakopsora pachyrhizi [3]; [9]): 56%; infection rate, % (Phakopsora pachyrhizi [3]; Table 5, untreated 71%): 31%; Efficacy, % (Puccinia triticina; Table 9, 75 g a.i./ha, untreated infection 74%): 66%; Efficacy, % (Puccinia triticina; Table 9, 150 g a.i./ha, untreated infection 74%): 73%; infection rate, % (Puccinia triticina; Table 9, 75 g a.i./ha, untreated 74%): 25%; infection rate, % (Puccinia triticina; Table 9, 150 g a.i./ha, untreated 74%): 20%
